From patent US20080279932A1, “Compounds” (priority 2005, published 2008)
Marks after values point to notes of the source that are not given here.

Legend:
[1] = cited from earlier work; for Dissociation Constant (pKa's), first value: first pKa of the salt-forming acid (counter-ion); for Dissociation Constant (pKa's), second value: second pKa of the salt-forming acid (counter-ion)
[2] = Racemization study; format: physicochemical
Text: The free base in water chemically degraded and detection of racemization was not possible.

[3] = Stability of bulk material with excipients for 2 weeks at 50 C and 50 C/75% r.h. (HPLC assay); format: physicochemical; conditions: for HPLC Assay Results (External Standard): in % (unit assumed); for stability compared with the free base of vildagliptin: bulk and excipient mixtures, 2 weeks
Description: Stability of Bulk Material with Excipients for 2 week at 50 C and 50 C/75% r.h.
Procedure for Dry Mixtures: 25 mg of free base drug substance was weighed into sample tube and approximately 2.5 grams of mixture A, or 25 mg of Lactose was added to the tube. Weight adjustments were made for each salt.
(§1) One sample preparation per condition and one injection per sample.
Controls: A control of the drug substance with the excipients will be prepared and analyzed as a time zero data point and to test the efficiency of extracting the drug substance from the excipients.
Mixture A: (oral) mannitol/Avicel PH 102/Cutina HR 57:38:5 (m/m/m)

[4] = Forced decomposition (HPLC assay, 3 days); format: physicochemical; conditions: for HPLC Assay Results (External Standard): in % (unit assumed)
Description: Procedure: Weigh 25 mg drug substance to a test tube and add 5 ml of appropriate solution.
as §1
Dilute sample to 1 mg/mL with water for HPLC analysis.
All salt forms were tested in bulk and water.
If the newer gradient method is selected then the order of elution of the acid degradation product and the amide degradation product are reversed, with the acid degradation product eluting first about 1.8 minutes and the amide degradation product eluting second about 2.5 minutes. Only the extended stability (3 month) samples were analyzed with the gradient HPLC method.

[5] = Dissociation constant (pKa's) of LAF237 free base and salt-forming acids; format: physicochemical; conditions: LAF237 free base
[6] = 1% in mixture A Dry Granulated, 2 weeks at 50/75% r.h.
[7] = 1% in mixture A Dry Granulated, 2 weeks at 50° C.
[8] = 1% in mixture A Dry Granulated, t0
[9] = 50% in Lactose Dry Granulated, 2 weeks at 50/75% r.h.
[10] = 50% in Lactose Dry Granulated, 2 weeks at 50° C.
[11] = 50% in Lactose Dry Granulated, t0

Compound | Dissociation Constant (pKa's), first value [1] | Dissociation Constant (pKa's), second value [1] | racemization ([2]; drug in the solid state) | HPLC Assay Results (External Standard) [3, 6] | HPLC Assay Results (External Standard) [3, 7] | HPLC Assay Results (External Standard) [3, 8] | HPLC Assay Results (External Standard) [3, 9] | HPLC Assay Results (External Standard) [3, 10] | HPLC Assay Results (External Standard) [3, 11] | HPLC Assay Results (External Standard) ([3]; Bulk, 2 weeks at 50/75% r.h.) | HPLC Assay Results (External Standard) ([3]; Bulk, 2 weeks at 50° C.) | HPLC Assay Results (External Standard) ([3]; Bulk, t0) | stability compared with the free base of vildagliptin [3] | HPLC Assay Results (External Standard) ([4]; Bulk, 80° C. (3-day)) | HPLC Assay Results (External Standard) ([4]; Bulk, ambient (3-day)) | HPLC Assay Results (External Standard) ([4]; H2O, 80° C. (3-day)) | HPLC Assay Results (External Standard) ([4]; H2O, ambient (3-day)) | stability in water ([4]; water at 80° C. after 3 days) | further results
tartarate | 2.98 | 4.34 |  |  |  |  |  |  |  |  |  |  |  |  |  |  |  |  | 
Hydrochloride Salt of Vildagliptin [Example 1] |  |  | no sign of racemization | 95.5 | 96.6 | 97.3 | 98.7 | 99.7 | 100.8 | 99.6 | 100.5 | 100.7 | better stability | 98.8 | 98.8 | 95.3 | 99.9 | remain stable | racemization ([2]; in solution in water, 80° C.): no sign of racemization; racemization ([2]; in solution in water, ambient): no sign of racemization
N#C[C@@H]1CCCN1C(=O)CNC12CC3CC(CC(O)(C3)C1)C2 [Free Base, (S)-1-[(3-hydroxy-1-adamantyl)amino]acetyl-2-cyano-pyrrolidine, reference compound] |  |  | no sign of racemization | 83.8* | 94.2* | 98.1* | 96.5 | 98.9 | 100.7 | 98.7 | 98.6 | 100.0 |  | 100.3 | 99.9 | 7.5 | 98.4 |  | pKa [5]: 7.86; % loss in assay value ([3]; in the presence of mixture A): large losses; stability in water ([4]; free base in water, after 3 days): complete degradation; LAF237 remaining ([4]; peroxide sample, after three days): 3%; stability under acidic conditions ([4]; room temperature): good stability
Hydrogen Fumarate Salt of Vildagliptin [Example 4] | 3.03 | 4.47 |  | 96.0 | 94.6 | 96.1 | 98.2 | 98.9 | 99.5 | 98.9 | 99.0 | 104.0 | better stability | 98.8 | 102.2 | 98.9 | 101.9 | remain stable | 
